This is an account of results in paper PMC4459817, “Vasculotide reduces endothelial permeability and tumor cell extravasation in the absence of binding to or agonistic activation of Tie2” (EMBO Molecular Medicine, 2015).

This assay has as its system mouse Tie2-Fc (extracellular domain of Tie2). In words: pull-down assay, mouse Tie2-Fc. The assay is classed as binding. The following applies: mouse Tie2-Fc on protein A sepharose; rhAng1 20 ng or VT 100 ng, pH 7.4, 4°C; Fig9A,B. From the text:
To better understand the difficulties we had in observing Tie2 activation by VT, we sought to characterize the binding affinity and kinetics of VT to Tie2. Purified human or mouse Tie2-Fc (i.e., Fc-conjugated extracellular domains of Tie2) were first coupled to protein A sepharose beads for pull-down experiments (Fig9A and B) or immobilized on a Biacore CM5 sensor chip for surface plasmon resonance (SPR) experiments (Fig9C and Supplementary Fig S3).
Figure 9 Binding of Vasculotide vs. Ang1 variants to the extracellular domain of Tie2 • A–B Pull-down assay. Input ligands—rhAng1 (A) and VT (B)—were incubated with either protein A sepharose beads only, bead-conjugated mouse Tie2-Fc (mTie2), or bead-conjugated human Tie2-Fc (hTie2). […] The ‘unbound’ fraction is 7% of residual/free ligands remaining in the supernatant. • C Quantitative kinetics analysis by SPR. All analytes were run at increasing concentrations of 0.625, 1.25, 2.5, 5, and 10 nM, at 37°C and pH 7.4. […] Source data are available online for this figure. […]
Semi-quantitative densitometry analysis of immunoblots was performed using the ChemiGenius2 bioimaging system and GeneSnap/GeneTools software (Syngene). […]

“CHHHRHSF [Vasculotide, 4-armed maleimide-functionalized polyethylene glycol (PEG) backbone to link together four cysteine-capped T7 peptides, that is, CHHHRHSF]”: the “pull-down by Tie2-Fc” value is “did not pull down any appreciable levels”.

B1: recombinant human Ang1 (rhAng1) (ligand, UniProt Q15389 16-498, looked up)
chain: HIGCSNQRRSPENSGRRYNRIQHGQCAYTFILPEHDGNCRESTTDQYNTNALQRDAPHVEPDFSSQKLQHLEHVMENYTQWLQKLENYIVENMKSEMAQIQQNAVQNHTATMLEIGTSLLSQTAEQTRKLTDVETQVLNQTSRLEIQLLENSLSTYKLEKQLLQQTNEILKIHEKNSLLEHKILEMEGKHKEELDTLKEEKENLQGLVTRQTYIIQELEKQLNRATTNNSVLQKQQLELMDTVHNLVNLCTKEGVLLKGGKREEEKPFRDCADVYQAGFNKSGIYTIYINNMPEPKKVFCNMDVNGGGWTVIQHREDGSLDFQRGWKEYKMGFGNPSGEYWLGNEFIFAITSQRQYMLRIELMDWEGNRAYSQYDRFHIGNEKQNYRLYLKGHTGTAGKQSSLILHGADFSTKDADNDNCMCKCALMLTGGWWFDACGPSNLNGMFYTAGQNHGKLNGIKWHYFKGPSYSLRSTTMMIRPLDF
notes: angiopoietin-1, human, recombinant; also called angiopoietin-1; source: bought: R&D Systems (named for the Boyden chamber experiments)
Turning to B1, the “pull-down by Tie2-Fc” value was “effectively pulled down the majority”.
